Results taken from patent US12377110B2, “Fospropofol methods and compositions” (Epalex Corporation, priority 2019, dated 2025).
Where “and” joins values, the source holds several entries; their conditions need not be identical. Identical values can stand only once. Like-named read-outs stand apart in the source and are kept apart here.

Legend:
[1] = Study No. 15-3 toxicokinetics of fospropofol and propofol in plasma; assay type: in vivo, Sprague-Dawley rats; conditions: for AUC(0-t) / Cmax / Tmax: Sprague-Dawley, rat, plasma, po, oral gavage fospropofol disodium; for AUC(0-t): read-out: Fospropofol AUC0-6 hr; for Cmax: read-out: Fospropofol Cmax; for Tmax: read-out: Fospropofol Tmax
Method: The purpose of Study No. 15-3 (GLP) was to determine the potential toxicity of fospropofol in Sprague-Dawley rats when administered once daily by oral gavage for 14 days. […] The cause of death for the three 250 mg/kg/day group main study females found dead could not be determined, but was considered related to the pharmacodynamic effects of fospropofol, based on the time of death relative to the time of close administration, and the clinical signs recorded before death. Clinical observations during the closing period for these animals included labored breathing, prostrate, splayed hindlimbs, uncoordinated movement, decreased activity, and eyes closed.

[2] = Study A17: PK of fospropofol and propofol after single oral dose of fospropofol disodium 800 mg in subjects with migraine; conditions: for AUC / Cmax / Tmax: female, human, po, 800 mg; for Cmax: Fospropofol Cmax; for Tmax: Fospropofol Tmax
Method: The study is planned to complete approximately 85 subjects. • Enrolled subjects will be asked to come to the study site for treatment when they experience a qualifying migraine headache. Dosing must occur within 4 hours after onset of the migraine symptoms. If treatment at the study site is not feasible or practicable within 4 hours after onset of migraine symptoms, subjects should use their usual medication for that headache and attempt to visit the clinic for treatment as soon as possible (within 4 hours) after onset of their next migraine headache. Dosing must occur within 60 days after enrollment (see Post-enrollment Period below). • At clinic check-in for treatment, study personnel will verify eligibility for closing regarding the criteria for a qualifying headache and adherence to post-enrollment study restrictions (see Eligibility for Dosing below). • Treatment will consist of a single oral dose of fospropofol disodium. […] Because the prevalence of migraine headaches is higher in women than in men, efforts will be made to enroll at least 50% women. • Subjects must meet the general inclusion and exclusion criteria listed below (Inclusion Criteria and Exclusion Criteria) at screening to be enrolled in the study. To be eligible for fospropofol disodium treatment after onset of a migraine headache, enrolled subjects must meet criteria specific to the presenting headache at clinic check-in (see Qualifying Headache below) and adhere to study restrictions specific to the period between enrollment and clinic check-in (see Post-enrollment Restrictions below). • Inclusion Criteria Subjects must meet all of the following criteria at screening to be enrolled in the study: • 1. Written informed consent approved by the Institutional Review Board (IRB) given before any study-related procedures are performed • 2. […] Complete abstinence alone can be used as a method of contraception. • 6. […] Able to comprehend the nature of the study, capable of giving written informed consent, and able to communicate effectively with clinic staff (as assessed by the investigator) • 8. Available to volunteer for the entire study duration and willing to adhere to all protocol requirements, including the post-enrollment restrictions (see Post-enrollment Restrictions below) • 9. Agrees not to post any information related to the study on any website or social media site (e.g., Facebook, Twitter, LinkedIn, Google+, etc.) until the entire trial has been completed • 10. Willing to forgo rescue medicine for at least 2 hours after initiation of treatment with study drug (see In-Clinic Rescue Medicine) • Exclusion Criteria Subjects to whom any of the following criteria apply at screening will be excluded: • 1. History of hemiplegic migraine (at any time in the past). • 2. History of headaches of any type occurring on ≥15 days/month during any of the 3 months prior to screening. • 3.

[3] = female, 50 mg/kg, Female, 50 mg/kg, Day 1
[4] = female, 50 mg/kg, Female, 50 mg/kg, Day 14
[5] = female, 100 mg/kg, Female, 100 mg/kg, Day 1
[6] = female, 100 mg/kg, Female, 100 mg/kg, Day 14
[7] = female, 250 mg/kg, Female, 250 mg/kg, Day 1
[8] = female, 250 mg/kg, Female, 250 mg/kg, Day 14
[9] = male, 50 mg/kg, Male, 50 mg/kg, Day 1
[10] = male, 50 mg/kg, Male, 50 mg/kg, Day 14
[11] = male, 100 mg/kg, Male, 100 mg/kg, Day 1
[12] = male, 100 mg/kg, Male, 100 mg/kg, Day 14
[13] = male, 250 mg/kg, Male, 250 mg/kg, Day 1
[14] = male, 250 mg/kg, Male, 250 mg/kg, Day 14
[15] = A17 vs. A16 800 mg Cohort, excluding subject 308
[16] = Study A17 vs. A16 800 mg Cohort, excluding subject 308
[17] = plasma, Mean, Mean without Subject 6008 (below limit of quantitation at all time points), Fospropofol Disodium 800 mg oral
[18] = plasma, Mean, N = 12 migraine subjects, Fospropofol Disodium 800 mg oral
[19] = individual migraine subjects, Fospropofol Disodium 800 mg oral
[20] = plasma, individual migraine subjects (N = 12), Fospropofol Disodium 800 mg oral

For CC(C)c1cccc(C(C)C)c1OCOP(=O)(O)O [fospropofol, (2,6-diisopropylphenoxy)methyl dihydrogen phosphate], the “Increase of fospropofol Cmax and AUC0-6hr with dose” value ([1]; 50, 100, and 250 mg/kg/day, Day 1 and Day 14) was “greater than close-proportional”, the AUC(0-t) [1, 3] was 166 ng·h/mL and the Cmax [1, 3] was 582 ng/mL. It also gave a Tmax [1, 3] of 4.98 min, an AUC(0-t) [1, 4] of 160 ng·h/mL and a Cmax [1, 4] of 341 ng/mL. It also gave a Tmax [1, 4] of 15 min, an AUC(0-t) [1, 5] of 827 ng·h/mL and a Cmax [1, 5] of 1630 ng/mL. The Tmax [1, 5] was 4.98 min, the AUC(0-t) [1, 6] was 1170 ng·h/mL and the Cmax [1, 6] was 2560 ng/mL. It also gave a Tmax [1, 6] of 4.98 min, an AUC(0-t) [1, 7] of 4630 ng·h/mL and a Cmax [1, 7] of 8400 ng/mL. It also gave a Tmax [1, 7] of 4.98 min, an AUC(0-t) [1, 8] of 3810 ng·h/mL and a Cmax [1, 8] of 8440 ng/mL. For the same compound, the Tmax [1, 8] was 4.98 min, the “Fospropofol AUC0-6hr following repeated administration” value ([1]; male and female rats) was “did not appear to change” and the AUC(0-t) [1, 9] was 97.1 ng·h/mL. For the same compound, the Cmax [1, 9] was 178 ng/mL, the Tmax [1, 9] was 4.98 min and the AUC(0-t) [1, 10] was 96.9 ng·h/mL. It also gave a Cmax [1, 10] of 149 ng/mL, a Tmax [1, 10] of 4.98 min and an AUC(0-t) [1, 11] of 386 ng·h/mL. The Cmax [1, 11] was 930 ng/mL, the Tmax [1, 11] was 4.98 min and the AUC(0-t) [1, 12] was 370 ng·h/mL. For the same compound, the Cmax [1, 12] was 1360 ng/mL, the Tmax [1, 12] was 4.98 min and the AUC(0-t) [1, 13] was 3720 ng·h/mL. It also gave a Cmax [1, 13] of 8510 ng/mL, a Tmax [1, 13] of 4.98 min and an AUC(0-t) [1, 14] of 2130 ng·h/mL. The Cmax [1, 14] was 5020 ng/mL, the Tmax [1, 14] was 4.98 min and the “Dependence of systemic exposure on sex” value ([1]; rats, 14 days oral gavage fospropofol disodium) was “greater exposure in females”. For the same compound, the “Ratio of mean fospropofol Auc1, migraine subjects (all female) to female healthy volunteers” value [2, 15] was 110%, the “Ratio of mean fospropofol Auc2, migraine subjects (all female) to female healthy volunteers” value [2, 15] was 116% and the “Ratio of mean fospropofol Auc4, migraine subjects (all female) to female healthy volunteers” value [2, 15] was 120%. The “Ratio of mean fospropofol Cmax, migraine subjects (all female) to female healthy volunteers” value [2, 15] was 94%, the “Ratio of mean fospropofol Tmax, migraine subjects (all female) to female healthy volunteers” value [2, 15] was 89% and the “Ratio of mean fospropofol Auc1, migraine subjects to healthy volunteers” value [2, 16] was 121%. For the same compound, the “Ratio of mean fospropofol Auc2, migraine subjects to healthy volunteers” value [2, 16] was 130%, the “Ratio of mean fospropofol Auc4, migraine subjects to healthy volunteers” value [2, 16] was 135% and the “Ratio of mean fospropofol Cmax, migraine subjects to healthy volunteers” value [2, 16] was 105%. The “Ratio of mean fospropofol Tmax, migraine subjects to healthy volunteers” value [2, 16] was 98%, the AUC ([2]; plasma, Fospropofol AUC1, Mean, Mean without Subject 6008 (below limit of quantitation at all time points), Fospropofol Disodium 800 mg oral) was 3360 ng·h/mL and the AUC ([2]; plasma, Fospropofol AUC1, Mean, Mean, N = 12 migraine subjects, Fospropofol Disodium 800 mg oral) was 3080 ng·h/mL. For the same compound, the AUC ([2]; plasma, Fospropofol AUC2, Mean, Mean without Subject 6008 (below limit of quantitation at all time points), Fospropofol Disodium 800 mg oral) was 4310 ng·h/mL, the AUC ([2]; plasma, Fospropofol AUC2, Mean, Mean, N = 12 migraine subjects, Fospropofol Disodium 800 mg oral) was 3950 ng·h/mL and the AUC ([2]; plasma, Fospropofol AUC4, Mean, Mean without Subject 6008 (below limit of quantitation at all time points), Fospropofol Disodium 800 mg oral) was 4650 ng·h/mL. The AUC ([2]; plasma, Fospropofol AUC4, Mean, Mean, N = 12 migraine subjects, Fospropofol Disodium 800 mg oral) was 4260 ng·h/mL, the Cmax [2, 17] was 6320 ng/mL and the Cmax [2, 18] was 5790 ng/mL. The Tmax [2, 17] was 19.8 min, the Tmax [2, 18] was 19.8 min and the “Fospropofol AUC4” value [2, 19] was 3837.04 ng·h/mL and 1469.88 ng·h/mL and 4303.32 ng·h/mL and 4814.33 ng·h/mL and 6942.73 ng·h/mL and 1702.48 ng·h/mL and 8572.36 ng·h/mL and 1248.45 ng·h/mL and 3152.5 ng·h/mL and 7130.22 ng·h/mL and 7986.57 ng·h/mL. The “Fospropofol Cmax” value [2, 19] was 5163.62 ng/mL and 3285.03 ng/mL and 5036.79 ng/mL and 7527.26 ng/mL and 10597.13 ng/mL and 2219.93 ng/mL and 8307.86 ng/mL and 1419.1 ng/mL and 4507.39 ng/mL and 11463.93 ng/mL and 10001.18 ng/mL, the “Fospropofol Tmax” value [2, 19] was 10 min and 40 min and the “Fospropofol AUC 1 hr” value [2, 20] was 723.61 ng·h/mL and 2418.57 ng·h/mL and 5268.76 ng·h/mL and 6456.6 ng·h/mL and 2684.78 ng·h/mL and 1315.43 ng·h/mL and 3262.09 ng·h/mL and 3522.27 ng·h/mL and 5673.87 ng·h/mL and 1193.95 ng·h/mL and 4461.52 ng·h/mL. For the same compound, the “Fospropofol AUC 2 hr” value [2, 20] was 1007.69 ng·h/mL and 3045.22 ng·h/mL and 6730.95 ng·h/mL and 7756.33 ng·h/mL and 3666.13 ng·h/mL and 1421.1 ng·h/mL and 4174.88 ng·h/mL and 4386.97 ng·h/mL and 6702.97 ng·h/mL and 1610.51 ng·h/mL and 6945.81 ng·h/mL.
